# Reference: PubChem BioAssay AID256 (DTP/NCI, 2004)
# Several values for one entry are separate records, joined by “and”; a condition that tells them apart may be missing. Identical values can stand only once. Inconclusive results and toxic doses are left out.
# System: CD2F1 mice, L1210 leukemia ip, survival T/C
# Assay: NCI In Vivo Anticancer Drug Screen. Data for tumor model L1210 Leukemia (intraperitoneal) in CD2F1 (CDF1) mice
# Settings: endpoint: mean survival time, higher = longer survival
# In short: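 Read-out first: treated-group measurement over vehicle-control measurement, expressed as a ratio. Animals bore a transplanted tumor line and were dosed with compound or vehicle.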
smiles,measurement,setting,value
Nc1nc(=S)c2ncn(C3CC(O)C(CO)O3)c2[nH]1 (stereo not given),T/C,"dose: 1.25 mg/kg/injection, schedule: Q01DX005 (ip), vehicle: saline",150 % of control
same,T/C,"dose: 2.5 mg/kg/injection, schedule: Q01DX001 (ip), vehicle: steriod suspending solution",123 % of control
same,T/C,"dose: 4.0 mg/kg/injection, schedule: Q01DX009 (sc), vehicle: saline",108 % of control
same,T/C,"dose: 5.0 mg/kg/injection, schedule: Q01DX005 (ip), vehicle: saline with Tween-80",154 % of control
same,T/C,"dose: 5.0 mg/kg/injection, schedule: Q01DX005 (oral), vehicle: saline",160 % of control
same,T/C,"dose: 5.0 mg/kg/injection, schedule: Q04DX003 (ip), vehicle: water",153 % of control
same,T/C,"dose: 8.0 mg/kg/injection, schedule: Q01DX009 (ip), vehicle: saline",151 % of control
same,T/C,"dose: 8.0 mg/kg/injection, schedule: Q01DX009 (sc), vehicle: saline",106 % of control
same,T/C,"dose: 10.0 mg/kg/injection, schedule: Q01DX005 (ip), vehicle: saline with Tween-80",120 % of control
same,T/C,"dose: 10.0 mg/kg/injection, schedule: Q01DX005 (ip), vehicle: saline",151 % of control
same,T/C,"dose: 10.0 mg/kg/injection, schedule: Q01DX005 (oral), vehicle: saline",156 % of control
same,T/C,"dose: 10.0 mg/kg/injection, schedule: Q04DX003 (ip), vehicle: suspension in saline",154 % of control
same,T/C,"dose: 10.0 mg/kg/injection, schedule: Q04DX003 (iv), vehicle: suspension in saline",177 % of control
same,T/C,"dose: 16.0 mg/kg/injection, schedule: Q01DX005 (ip), vehicle: saline",161 % of control
same,T/C,"dose: 16.0 mg/kg/injection, schedule: Q01DX009 (ip), vehicle: saline",170 % of control
same,T/C,"dose: 16.0 mg/kg/injection, schedule: Q01DX009 (ip), vehicle: water",108 % of control
same,T/C,"dose: 16.0 mg/kg/injection, schedule: Q01DX009 (sc), vehicle: saline",151 % of control
same,T/C,"dose: 20.0 mg/kg/injection, schedule: Q01DX001 (sc), vehicle: saline",121 % of control
same,T/C,"dose: 20.0 mg/kg/injection, schedule: Q01DX005 (oral), vehicle: saline",151 % of control
same,T/C,"dose: 20.0 mg/kg/injection, schedule: Q03HX008 (ip), vehicle: saline",152 % of control
same,T/C,"dose: 20.0 mg/kg/injection, schedule: Q03HX024 (ip), vehicle: saline",150 % of control
same,T/C,"dose: 20.0 mg/kg/injection, schedule: Q04DX003 (ip), vehicle: saline",157 % of control
same,T/C,"dose: 20.0 mg/kg/injection, schedule: Q04DX003 (ip), vehicle: suspension in saline",159 % of control
same,T/C,"dose: 20.0 mg/kg/injection, schedule: Q04DX003 (iv), vehicle: suspension in saline",159 % of control
same,T/C,"dose: 24.0 mg/kg/injection, schedule: Q01DX009 (ip), vehicle: water",116 % of control and 103 % of control
same,T/C,"dose: 24.0 mg/kg/injection, schedule: Q04DX003 (ip), vehicle: water",118 % of control
same,T/C,"dose: 32.0 mg/kg/injection, schedule: Q01DX005 (ip), vehicle: saline",152 % of control
same,T/C,"dose: 32.0 mg/kg/injection, schedule: Q01DX009 (ip), vehicle: saline",157 % of control
same,T/C,"dose: 32.0 mg/kg/injection, schedule: Q01DX009 (sc), vehicle: saline",150 % of control
same,T/C,"dose: 36.0 mg/kg/injection, schedule: Q01DX009 (ip), vehicle: water",103 % of control
same,T/C,"dose: 36.0 mg/kg/injection, schedule: Q04DX003 (ip), vehicle: water",111 % of control
same,T/C,"dose: 37.5 mg/kg/injection, schedule: Q04DX003 (ip), vehicle: clinical formulation",102 % of control
same,T/C,"dose: 37.5 mg/kg/injection, schedule: Q04DX003 (ip), vehicle: saline",163 % of control
same,T/C,"dose: 40.0 mg/kg/injection, schedule: Q03HX008 (ip), vehicle: saline",157 % of control
same,T/C,"dose: 40.0 mg/kg/injection, schedule: Q03HX016 (ip), vehicle: saline",156 % of control
same,T/C,"dose: 40.0 mg/kg/injection, schedule: Q03HX024 (ip), vehicle: saline",159 % of control
same,T/C,"dose: 40.0 mg/kg/injection, schedule: Q04DX003 (ip), vehicle: saline",178 % of control
same,T/C,"dose: 40.0 mg/kg/injection, schedule: Q04DX003 (ip), vehicle: suspension in saline",151 % of control
same,T/C,"dose: 40.0 mg/kg/injection, schedule: Q04DX003 (iv), vehicle: suspension in saline",189 % of control
same,T/C,"dose: 40.0 mg/kg/injection, schedule: Q08DX002 (ip), vehicle: saline",152 % of control
same,T/C,"dose: 50.0 mg/kg/injection, schedule: Q01DX009 (ip), vehicle: water",107 % of control
same,T/C,"dose: 50.0 mg/kg/injection, schedule: Q04DX003 (ip), vehicle: water",120 % of control and 103 % of control
same,T/C,"dose: 64.0 mg/kg/injection, schedule: Q01DX009 (ip), vehicle: saline",123 % of control
same,T/C,"dose: 75.0 mg/kg/injection, schedule: Q04DX003 (ip), vehicle: clinical formulation",111 % of control
same,T/C,"dose: 75.0 mg/kg/injection, schedule: Q04DX003 (ip), vehicle: saline",154 % of control
same,T/C,"dose: 76.0 mg/kg/injection, schedule: Q01DX009 (ip), vehicle: water",115 % of control
same,T/C,"dose: 76.0 mg/kg/injection, schedule: Q04DX003 (ip), vehicle: water",122 % of control and 103 % of control
same,T/C,"dose: 80.0 mg/kg/injection, schedule: Q01DX001 (ip), vehicle: saline",154 % of control
same,T/C,"dose: 80.0 mg/kg/injection, schedule: Q03HX008 (ip), vehicle: saline",161 % of control
same,T/C,"dose: 80.0 mg/kg/injection, schedule: Q03HX016 (ip), vehicle: saline",168 % of control
same,T/C,"dose: 80.0 mg/kg/injection, schedule: Q03HX024 (ip), vehicle: saline",161 % of control
same,T/C,"dose: 80.0 mg/kg/injection, schedule: Q04DX003 (ip), vehicle: saline",174 % of control
same,T/C,"dose: 80.0 mg/kg/injection, schedule: Q04DX003 (ip), vehicle: suspension in saline",154 % of control
same,T/C,"dose: 80.0 mg/kg/injection, schedule: Q04DX003 (iv), vehicle: suspension in saline",162 % of control
same,T/C,"dose: 80.0 mg/kg/injection, schedule: Q08DX002 (ip), vehicle: saline",154 % of control
same,T/C,"dose: 96.0 mg/kg/injection, schedule: Q01DX009 (oral), vehicle: saline",115 % of control
same,T/C,"dose: 116.0 mg/kg/injection, schedule: Q01DX005 (ip), vehicle: water",117 % of control
same,T/C,"dose: 116.0 mg/kg/injection, schedule: Q01DX009 (ip), vehicle: water",150 % of control
same,T/C,"dose: 116.0 mg/kg/injection, schedule: Q04DX003 (ip), vehicle: water",106 % of control
same,T/C,"dose: 150.0 mg/kg/injection, schedule: Q04DX003 (ip), vehicle: saline",152 % of control
same,T/C,"dose: 160.0 mg/kg/injection, schedule: Q03HX008 (ip), vehicle: saline",160 % of control
same,T/C,"dose: 160.0 mg/kg/injection, schedule: Q03HX016 (ip), vehicle: saline",174 % of control
same,T/C,"dose: 160.0 mg/kg/injection, schedule: Q03HX024 (ip), vehicle: saline",155 % of control
same,T/C,"dose: 160.0 mg/kg/injection, schedule: Q04DX003 (ip), vehicle: saline",162 % of control
same,T/C,"dose: 160.0 mg/kg/injection, schedule: Q08DX002 (ip), vehicle: saline",158 % of control and 152 % of control
same,T/C,"dose: 176.0 mg/kg/injection, schedule: Q01DX005 (ip), vehicle: water",105 % of control
same,T/C,"dose: 176.0 mg/kg/injection, schedule: Q04DX003 (ip), vehicle: water",121 % of control
same,T/C,"dose: 192.0 mg/kg/injection, schedule: Q01DX009 (oral), vehicle: saline",106 % of control
same,T/C,"dose: 240.0 mg/kg/injection, schedule: Q01DX001 (oral), vehicle: saline",152 % of control
same,T/C,"dose: 266.0 mg/kg/injection, schedule: Q01DX005 (ip), vehicle: water",88 % of control
same,T/C,"dose: 266.0 mg/kg/injection, schedule: Q04DX003 (ip), vehicle: water",115 % of control
same,T/C,"dose: 300.0 mg/kg/injection, schedule: Q04DX003 (ip), vehicle: saline",101 % of control
same,T/C,"dose: 320.0 mg/kg/injection, schedule: Q01DX001 (oral), vehicle: saline",152 % of control
same,T/C,"dose: 320.0 mg/kg/injection, schedule: Q03HX008 (ip), vehicle: saline",162 % of control
same,T/C,"dose: 320.0 mg/kg/injection, schedule: Q03HX016 (ip), vehicle: saline",158 % of control
same,T/C,"dose: 320.0 mg/kg/injection, schedule: Q04DX003 (ip), vehicle: suspension in saline",108 % of control
CN(C)CCSCC(=O)N1c2ccccc2Sc2ccc(Cl)cc21,T/C,"dose: 50.0 mg/kg/injection, schedule: Q01DX009 (ip), vehicle: saline with Tween-80",103 % of control
same,T/C,"dose: 100.0 mg/kg/injection, schedule: Q01DX009 (ip), vehicle: saline with Tween-80",101 % of control
same,T/C,"dose: 100.0 mg/kg/injection, schedule: Q04DX003 (ip), vehicle: saline with Tween-80",98 % of control
same,T/C,"dose: 200.0 mg/kg/injection, schedule: Q04DX003 (ip), vehicle: saline with Tween-80",98 % of control
